Results published in patent publication US20260042755A1, “GPR6 INVERSE AGONISTS” (MapLight Therapeutics, Inc., priority 2022, published 2026).

Experiments:
GPR6 = molecular target: T1, GPR6 (Homo sapiens, UniProt P46095); assay: GPR6 antagonist functional cAMP assay (LANCE Ultra cAMP TR-FRET, CHO cells stably expressing GPR6); format: cell-based; details: CHO cells stably expressing GPR6, cAMP assay (Example 24)
T1 construct: expressed in transfected cells; host or cells: CHO cells
In short: (§1)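 Cells in Krebs-Ringer buffer with 0.1% BSA and 150 μM Ro 20-1724 PDE inhibitor were exposed to compounds for 45 min at 37 °C (0.1% DMSO). cAMP was read by TR-FRET at 665 nm; IC50s came from 4-parameter fits normalized to DMSO and reference compound.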

GPR3 = molecular target: T2, GPR3 (Homo sapiens, UniProt P46089); assay: GPR3 antagonist functional cAMP assay (LANCE Ultra cAMP TR-FRET, CHO cells stably expressing GPR3); format: cell-based; details: CHO cells stably expressing GPR3, cAMP assay (Example 24)
T2 construct: expressed in transfected cells; host or cells: CHO cells
In short: as §1

T1 sequence (P46095 whole entry): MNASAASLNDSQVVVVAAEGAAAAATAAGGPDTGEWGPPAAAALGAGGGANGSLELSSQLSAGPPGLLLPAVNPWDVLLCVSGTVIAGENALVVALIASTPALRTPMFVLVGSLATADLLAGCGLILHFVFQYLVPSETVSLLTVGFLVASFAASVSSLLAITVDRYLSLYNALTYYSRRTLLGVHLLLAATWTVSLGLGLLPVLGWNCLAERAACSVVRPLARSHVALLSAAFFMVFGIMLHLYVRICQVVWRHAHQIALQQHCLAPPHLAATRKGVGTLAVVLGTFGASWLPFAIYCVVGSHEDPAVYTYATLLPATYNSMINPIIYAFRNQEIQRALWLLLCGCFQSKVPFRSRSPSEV
T2 sequence (P46089 whole entry, species assumed): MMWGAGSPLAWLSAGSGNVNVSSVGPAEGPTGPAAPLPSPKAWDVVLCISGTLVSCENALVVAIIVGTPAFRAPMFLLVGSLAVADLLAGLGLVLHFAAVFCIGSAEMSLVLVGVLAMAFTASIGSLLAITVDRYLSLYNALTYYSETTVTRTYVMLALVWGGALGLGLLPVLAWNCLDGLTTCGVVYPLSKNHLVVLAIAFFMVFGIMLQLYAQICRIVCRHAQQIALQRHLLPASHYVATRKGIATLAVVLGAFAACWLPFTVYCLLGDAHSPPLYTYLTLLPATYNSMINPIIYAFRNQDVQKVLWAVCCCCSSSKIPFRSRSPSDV

SMILES | IC50 (GPR6) [µM] | IC50 (GPR3) [µM]
[2H]C([2H])([2H])n1cc(-c2nc3c(nc2N2CCC(Oc4ccc(F)cc4F)CC2)CCN(C(C)=O)C3)cn1 [Compound 405, 1-{2-[4-(2,4-difluorophenoxy)piperidin-1-yl]-3-[1-(2H3)methyl-1H-pyrazol-4-yl]-5H,6H,7H,8H-pyrido[3,4-b]pyrazin-6-yl}ethan-1-one] | 0.1 to 1 | 1 to 30
[2H]C([2H])([2H])C([2H])([2H])n1cc(-c2nc3c(nc2N2CCC(Oc4ccc(F)cc4F)CC2)CCN(C(C)=O)C3)cn1 [Compound 406, 1-{2-[4-(2,4-difluorophenoxy)piperidin-1-yl]-3-{1-[(1,1,2,2,2-2H5)ethyl]-1H-pyrazol-4-yl}-5H,6H,7H,8H-pyrido[3,4-b]pyrazin-6-yl}ethan-1-one] | < 0.1 | 1 to 30
CC(C)(O)C(O)c1cc2nc(N3CCC(Oc4ccc(F)cc4F)CC3)c(-c3cnn(C(F)F)c3)nc2cn1 (centres unmarked) [Compound 407, 1-{3-[1-(difluoromethyl)-4-pyrazolyl]-2-[4-(2,4-difluorophenoxy)-1-piperidyl]-1,4,6-triaza-7-naphthyl}-2-methyl-1,2-propanediol] | 0.1 to 1 | 1 to 30
Cn1cc(-c2nc3c(C#N)nccc3nc2N2CCC(Oc3ccc(F)cc3F)CC2)cn1 [Compound 409, 2-[4-(2,4-difluorophenoxy)piperidin-1-yl]-3-(1-methyl-1H-pyrazol-4-yl)pyrido[3,4-b]pyrazine-5-carbonitrile] | 0.1 to 1 | 0.1 to 1
COc1cc2nc(N3CCC(Oc4ccc(F)cc4F)CC3)c(-c3cnn(C)c3)nc2cn1 [Compound 410, 2-(4-(2,4-difluorophenoxy)piperidin-1-yl)-7-methoxy-3-(1-methyl-1H-pyrazol-4-yl)pyrido[3,4-b]pyrazine] | 1 to 30 | 1 to 30
Cn1cc(-c2nc3cncc(Cl)c3nc2N2CCC(Oc3ccc(F)cc3F)CC2)cn1 [Compound 411, 1-[8-chloro-3-(1-methyl-1H-pyrazol-4-yl)pyrido[3,4-b]pyrazin-2-yl]-4-(2,4-difluorophenoxy)piperidine] | 1 to 30 | 1 to 30
Cn1cc(-c2nc3cnc(C4(O)COCC4O)cc3nc2N2CCC(Oc3ccc(F)cc3F)CC2)cn1 (centres unmarked) [Compound 412, 3-{2-[4-(2,4-difluorophenoxy)piperidin-1-yl]-3-(1-methyl-1H-pyrazol-4-yl)pyrido[3,4-b]pyrazin-7-yl}oxolane-3,4-diol] | 1 to 30 | 1 to 30
Cn1cc(-c2nc3cnc(C(=O)C(C)(C)O)cc3nc2N2CCC(Oc3ccc(F)cc3F)CC2)cn1 [Compound 413, 1-(2-(4-(2,4-difluorophenoxy)piperidin-1-yl)-3-(1-methyl-1H-pyrazol-4-yl)pyrido[3,4-b]pyrazin-7-yl)-2-hydroxy-2-methylpropan-1-one] | 0.1 to 1 | 1 to 30
CNCC(O)c1cc2nc(N3CCC(Oc4ccc(F)cc4F)CC3)c(-c3cnn(C)c3)nc2cn1 (centres unmarked) [Compound 414, 1-{2-[4-(2,4-difluorophenoxy)piperidin-1-yl]-3-(1-methyl-1H-pyrazol-4-yl)pyrido[3,4-b]pyrazin-7-yl}-2-(methylamino)ethan-1-ol] | 0.1 to 1 | 1 to 30
COc1ccc(OC2CCN(c3nc4cnncc4nc3-c3cnn(C)c3)CC2)c(F)c1 [Compound 417, 4-(2-fluoro-4-methoxyphenoxy)-1-[3-(1-methyl-1H-pyrazol-4-yl)pyrazino[2,3-d]pyridazin-2-yl]piperidine] | 0.1 to 1 | 1 to 30
CC(=O)N1CCc2nc(N3CCC(Oc4ccccc4)C3)c(-c3cnn(C)c3)nc2C1 (centres unmarked) [Compound 418, 1-[3-(1-methyl-1H-pyrazol-4-yl)-2-(3-phenoxypyrrolidin-1-yl)-5H,6H,7H,8H-pyrido[3,4-b]pyrazin-6-yl]ethan-1-one] | 1 to 30 | 1 to 30
CC(=O)N1CCc2nc(N3CCC(Oc4ccccc4)CC3)c(-c3cnn(C)c3)nc2C1 [Compound 419, 1-[3-(1-methyl-1H-pyrazol-4-yl)-2-(4-phenoxypiperidin-1-yl)-5H,6H,7H,8H-pyrido[3,4-b]pyrazin-6-yl]ethan-1-one] | 1 to 30 | 1 to 30
CC(=O)N1CCc2nc(N3CCC(Oc4ccccc4F)CC3)c(-c3cnn(C)c3)nc2C1 [Compound 420, 1-{2-[4-(2-fluorophenoxy)piperidin-1-yl]-3-(1-methyl-1H-pyrazol-4-yl)-5H,6H,7H,8H-pyrido[3,4-b]pyrazin-6-yl}ethan-1-one] | 0.1 to 1 | 1 to 30
CC(=O)N1CCc2nc(N3CCC(Oc4ccc(F)cc4)CC3)c(-c3cnn(C)c3)nc2C1 [Compound 421, 1-{2-[4-(4-fluorophenoxy)piperidin-1-yl]-3-(1-methyl-1H-pyrazol-4-yl)-5H,6H,7H,8H-pyrido[3,4-b]pyrazin-6-yl}ethan-1-one] | 1 to 30 | 1 to 30
CC(=O)N1CCc2nc(N3CC=CCC3)c(-c3cnn(C)c3)nc2C1 [Compound 422, 1-[3-(1-methyl-1H-pyrazol-4-yl)-2-(1,2,3,6-tetrahydropyridin-1-yl)-5H,6H,7H,8H-pyrido[3,4-b]pyrazin-6-yl]ethan-1-one] | ≥ 30 | 1 to 30
CC(=O)N1CCc2nc(N3CCC(Oc4cccc(F)c4F)CC3)c(-c3cnn(C)c3)nc2C1 [Compound 423, 1-{2-[4-(2,3-difluorophenoxy)piperidin-1-yl]-3-(1-methyl-1H-pyrazol-4-yl)-5H,6H,7H,8H-pyrido[3,4-b]pyrazin-6-yl}ethan-1-one] | 1 to 30 | 1 to 30
CC(=O)N1CCc2nc(N3CCC(Oc4cc(C#N)ccc4F)CC3)c(-c3cnn(C)c3)nc2C1 [Compound 424, 3-({1-[6-acetyl-3-(1-methyl-1H-pyrazol-4-yl)-5H,6H,7H,8H-pyrido[3,4-b]pyrazin-2-yl]piperidin-4-yl}oxy)-4-fluorobenzonitrile] | 1 to 30 | 1 to 30
COc1ccc(OC2CCN(c3nc4c(nc3-c3cnn(C)c3)CN(C(C)=O)CC4)CC2)cc1 [Compound 425, 1-{2-[4-(4-methoxyphenoxy)piperidin-1-yl]-3-(1-methyl-1H-pyrazol-4-yl)-5H,6H,7H,8H-pyrido[3,4-b]pyrazin-6-yl}ethan-1-one] | 1 to 30 | 1 to 30
COc1ccc(OC2CCN(c3nc4c(nc3-c3cnn(C)c3)CN(C(C)=O)CC4)CC2)c(OC)c1 [Compound 426, 1-{2-[4-(2,4-dimethoxyphenoxy)piperidin-1-yl]-3-(1-methyl-1H-pyrazol-4-yl)-5H,6H,7H,8H-pyrido[3,4-b]pyrazin-6-yl}ethan-1-one] | 1 to 30 | 1 to 30
COc1cccc(OC2CCN(c3nc4c(nc3-c3cnn(C)c3)CN(C(C)=O)CC4)CC2)c1F [Compound 427, 1-{2-[4-(2-fluoro-3-methoxyphenoxy)piperidin-1-yl]-3-(1-methyl-1H-pyrazol-4-yl)-5H,6H,7H,8H-pyrido[3,4-b]pyrazin-6-yl}ethan-1-one] | 1 to 30 | 1 to 30
CC(=O)N1CCc2nc(N3CCC(Oc4c(F)cc(F)cc4F)CC3)c(-c3cnn(C)c3)nc2C1 [Compound 428, 1-[3-(1-methyl-1H-pyrazol-4-yl)-2-[4-(2,4,6-trifluorophenoxy)piperidin-1-yl]-5H,6H,7H,8H-pyrido[3,4-b]pyrazin-6-yl]ethan-1-one] | 0.1 to 1 | 1 to 30
CC(=O)N1CCc2nc(N3CCC(Oc4ccc(Cl)cc4Cl)CC3)c(-c3cnn(C)c3)nc2C1 [Compound 429, 1-{2-[4-(2,4-dichlorophenoxy)piperidin-1-yl]-3-(1-methyl-1H-pyrazol-4-yl)-5H,6H,7H,8H-pyrido[3,4-b]pyrazin-6-yl}ethan-1-one] | 0.1 to 1 | 1 to 30
CC(=O)N1CCc2nc(N3CCC(Oc4cc(Cl)ccc4Cl)CC3)c(-c3cnn(C)c3)nc2C1 [Compound 430, 1-{2-[4-(2,5-dichlorophenoxy)piperidin-1-yl]-3-(1-methyl-1H-pyrazol-4-yl)-5H,6H,7H,8H-pyrido[3,4-b]pyrazin-6-yl}ethan-1-one] | < 0.1 | 0.1 to 1
CC(=O)N1CCc2nc(N3CCC(Oc4cc(F)cc(F)c4)CC3)c(-c3cnn(C)c3)nc2C1 [Compound 431, 1-{2-[4-(3,5-difluorophenoxy)piperidin-1-yl]-3-(1-methyl-1H-pyrazol-4-yl)-5H,6H,7H,8H-pyrido[3,4-b]pyrazin-6-yl}ethan-1-one] | 1 to 30 | 1 to 30
CC(=O)N1CCc2nc(N3CCC(Oc4ccc(F)cc4C)CC3)c(-c3cnn(C)c3)nc2C1 [Compound 432, 1-{2-[4-(4-fluoro-2-methylphenoxy)piperidin-1-yl]-3-(1-methyl-1H-pyrazol-4-yl)-5H,6H,7H,8H-pyrido[3,4-b]pyrazin-6-yl}ethan-1-one] | 1 to 30 | 1 to 30
CNc1cc2nc(N3CCC(Oc4ccc(F)cc4F)CC3)c(-c3cnn(C)c3)nc2cn1 [Compound 433, 2-(4-(2,4-difluorophenoxy)piperidin-1-yl)-N-methyl-3-(1-methyl-1H-pyrazol-4-yl)pyrido[3,4-b]pyrazin-7-amine] | 1 to 30 | 1 to 30
Cn1cc(-c2nc3cnc(C(C)(O)C(C)(C)O)cc3nc2N2CCC(Oc3ccc(F)cc3F)CC2)cn1 (centres unmarked) [Compound 434, 2-(2-(4-(2,4-difluorophenoxy)piperidin-1-yl)-3-(1-methyl-1H-pyrazol-4-yl)pyrido[3,4-b]pyrazin-7-yl)-3-methylbutane-2,3-diol] | 0.1 to 1 | 1 to 30
CC(=O)N1CCc2nc(N3CCC(Oc4ccc(F)cc4F)CC3)c(-c3ccnc(C)n3)nc2C1 [Compound 435, 1-{2-[4-(2,4-difluorophenoxy)piperidin-1-yl]-3-(2-methylpyrimidin-4-yl)-5H,6H,7H,8H-pyrido[3,4-b]pyrazin-6-yl}ethan-1-one] | 0.1 to 1 | 1 to 30
